From ChEMBL document CHEMBL3352057, “Novel fluorinated pyrrolo[1,2-a]pyrazine-2,6-dione derivatives: synthesis and anticonvulsant evaluation in animal models of epilepsy” (Bioorg Med Chem, 2014)
The source made the active and inactive calls. The calls are words filed in the database; no cut-off is given here.

How the values were obtained:
Mus musculus [1] = assay: Anticonvulsant activity in albino CF1 mouse assessed as protection against maximal electroshock-induced seizures at 100 mg/kg, ip measured after 0.25 hr; type: functional, organism-based; design: dose 100 mg/kg
Mus musculus [2] = assay: Anticonvulsant activity in albino CF1 mouse assessed as protection against maximal electroshock-induced seizures at 100 mg/kg, ip measured after 0.5 hr; type: functional, organism-based; design: dose 100 mg/kg
Mus musculus [3] = assay: Anticonvulsant activity in albino CF1 mouse assessed as protection against maximal electroshock-induced seizures at 100 mg/kg, ip measured after 1 hr; type: functional, organism-based; design: dose 100 mg/kg
Mus musculus [4] = assay: Anticonvulsant activity in albino CF1 mouse assessed as protection against maximal electroshock-induced seizures at 100 mg/kg, ip measured after 4 hrs; type: functional, organism-based; design: dose 100 mg/kg
Mus musculus [5] = assay: Neurotoxicity in albino CF1 mouse at 100 mg/kg, ip measured after 0.25 hr; type: toxicity, organism-based; design: dose 100 mg/kg, route intraperitoneal; settings: in vivo
Mus musculus [6] = assay: Neurotoxicity in albino CF1 mouse at 100 mg/kg, ip measured after 0.5 hr; type: toxicity, organism-based; design: dose 100 mg/kg, route intraperitoneal; settings: in vivo
Mus musculus [7] = assay: Neurotoxicity in albino CF1 mouse at 100 mg/kg, ip measured after 1 hr; type: toxicity, organism-based; design: dose 100 mg/kg, route intraperitoneal; settings: in vivo
Mus musculus [8] = assay: Neurotoxicity in albino CF1 mouse at 100 mg/kg, ip measured after 4 hrs; type: toxicity, organism-based; design: dose 100 mg/kg, route intraperitoneal; settings: in vivo
Mus musculus [9] = assay: Anticonvulsant activity in albino CF1 mouse assessed as protection against 32 mA current-induced seizures at 100 mg/kg, ip measured after 0.25 hr; type: functional, organism-based; design: dose 100 mg/kg
Mus musculus [10] = assay: Anticonvulsant activity in albino CF1 mouse assessed as protection against 32 mA current-induced seizures at 100 mg/kg, ip measured after 0.5 hr; type: functional, organism-based; design: dose 100 mg/kg
Mus musculus [11] = assay: Anticonvulsant activity in albino CF1 mouse assessed as protection against 32 mA current-induced seizures at 100 mg/kg, ip measured after 1 hr; type: functional, organism-based; design: dose 100 mg/kg
Mus musculus [12] = assay: Anticonvulsant activity in albino CF1 mouse assessed as protection against 32 mA current-induced seizures at 100 mg/kg, ip measured after 2 hrs; type: functional, organism-based; design: dose 100 mg/kg
Mus musculus [13] = assay: Anticonvulsant activity in albino CF1 mouse assessed as protection against 32 mA current-induced seizures at 100 mg/kg, ip measured after 4 hrs; type: functional, organism-based; design: dose 100 mg/kg
Mus musculus [14] = assay: Neurotoxicity in 32 mA current-induced seizure albino CF1 mouse model at 100 mg/kg, ip measured after 0.25 hr; type: toxicity, organism-based; design: dose 100 mg/kg, route intraperitoneal; settings: in vivo
Mus musculus [15] = assay: Neurotoxicity in 32 mA current-induced seizure albino CF1 mouse model at 100 mg/kg, ip measured after 0.5 hr; type: toxicity, organism-based; design: dose 100 mg/kg, route intraperitoneal; settings: in vivo
Mus musculus [16] = assay: Neurotoxicity in 32 mA current-induced seizure albino CF1 mouse model at 100 mg/kg, ip measured after 1 hr; type: toxicity, organism-based; design: dose 100 mg/kg, route intraperitoneal; settings: in vivo
Mus musculus [17] = assay: Neurotoxicity in 32 mA current-induced seizure albino CF1 mouse model at 100 mg/kg, ip measured after 2 hrs; type: toxicity, organism-based; design: dose 100 mg/kg, route intraperitoneal; settings: in vivo
Mus musculus [18] = assay: Neurotoxicity in 32 mA current-induced seizure albino CF1 mouse model at 100 mg/kg, ip measured after 4 hrs; type: toxicity, organism-based; design: dose 100 mg/kg, route intraperitoneal; settings: in vivo
Mus musculus [19] = assay: Anticonvulsant activity in albino CF1 mouse assessed as protection against subcutaneous metrazol-induced seizures at 100 mg/kg, ip measured after 0.25 hr; type: functional, organism-based; design: dose 100 mg/kg
Mus musculus [20] = assay: Anticonvulsant activity in albino CF1 mouse assessed as protection against subcutaneous metrazol-induced seizures at 100 mg/kg, ip measured after 0.5 hr; type: functional, organism-based; design: dose 100 mg/kg
Mus musculus [21] = assay: Anticonvulsant activity in albino CF1 mouse assessed as protection against subcutaneous metrazol-induced seizures at 100 mg/kg, ip measured after 1 hr; type: functional, organism-based; design: dose 100 mg/kg
Mus musculus [22] = assay: Anticonvulsant activity in albino CF1 mouse assessed as protection against subcutaneous metrazol-induced seizures at 100 mg/kg, ip measured after 4 hrs; type: functional, organism-based; design: dose 100 mg/kg
Rattus norvegicus [23] = assay: Anticonvulsant activity in Sprague-Dawley rat assessed as protection against maximal electroshock-induced seizures at 30 mg/kg, ip measured after 0.25 hr; type: functional, organism-based; design: dose 30 mg/kg
Rattus norvegicus [24] = assay: Anticonvulsant activity in Sprague-Dawley rat assessed as protection against maximal electroshock-induced seizures at 30 mg/kg, ip measured after 0.5 hr; type: functional, organism-based; design: dose 30 mg/kg
Rattus norvegicus [25] = assay: Anticonvulsant activity in Sprague-Dawley rat assessed as protection against maximal electroshock-induced seizures at 30 mg/kg, ip measured after 1 hr; type: functional, organism-based; design: dose 30 mg/kg
Rattus norvegicus [26] = assay: Anticonvulsant activity in Sprague-Dawley rat assessed as protection against maximal electroshock-induced seizures at 30 mg/kg, ip measured after 2 hrs; type: functional, organism-based; design: dose 30 mg/kg
Rattus norvegicus [27] = assay: Anticonvulsant activity in Sprague-Dawley rat assessed as protection against maximal electroshock-induced seizures at 30 mg/kg, ip measured after 4 hrs; type: functional, organism-based; design: dose 30 mg/kg
Rattus norvegicus [28] = assay: Neurotoxicity in MES Sprague-Dawley rat model at 30 mg/kg, ip measured after 0.25 hr; type: toxicity, organism-based; design: dose 30 mg/kg, route intraperitoneal; settings: in vivo
Rattus norvegicus [29] = assay: Neurotoxicity in MES Sprague-Dawley rat model at 30 mg/kg, ip measured after 0.5 hr; type: toxicity, organism-based; design: dose 30 mg/kg, route intraperitoneal; settings: in vivo
Rattus norvegicus [30] = assay: Neurotoxicity in MES Sprague-Dawley rat model at 30 mg/kg, ip measured after 1 hr; type: toxicity, organism-based; design: dose 30 mg/kg, route intraperitoneal; settings: in vivo
Rattus norvegicus [31] = assay: Neurotoxicity in MES Sprague-Dawley rat model at 30 mg/kg, ip measured after 2 hrs; type: toxicity, organism-based; design: dose 30 mg/kg, route intraperitoneal; settings: in vivo
Rattus norvegicus [32] = assay: Neurotoxicity in MES Sprague-Dawley rat model at 30 mg/kg, ip measured after 4 hrs; type: toxicity, organism-based; design: dose 30 mg/kg, route intraperitoneal; settings: in vivo

Compound | Activity (Mus musculus [1]) | Activity (Mus musculus [2]) | Activity (Mus musculus [3]) | Activity (Mus musculus [4]) | Activity (Mus musculus [5]) | Activity (Mus musculus [6]) | Activity (Mus musculus [7]) | Activity (Mus musculus [8]) | Activity (Mus musculus [9]) | Activity (Mus musculus [10]) | Activity (Mus musculus [11]) | Activity (Mus musculus [12]) | Activity (Mus musculus [13]) | Activity (Mus musculus [14]) | Activity (Mus musculus [15]) | Activity (Mus musculus [16]) | Activity (Mus musculus [17]) | Activity (Mus musculus [18]) | Activity (Mus musculus [19]) | Activity (Mus musculus [21]) | also measured
Cl.O=C1NC(=O)[C@@H](c2cccc(C(F)(F)F)c2)N2CCC[C@H]12 | Active | inactive | inactive | inactive | Non-toxic | Non-toxic | Non-toxic | Non-toxic | Active | Active | Active | inactive | inactive | Non-toxic | Non-toxic | Non-toxic | Non-toxic | Non-toxic | – | – | –
O=C1NC(=O)[C@@H]2CCCN2[C@H]1c1c(F)cccc1Cl (mixture of isomers) | inactive | inactive | inactive | inactive | Non-toxic | Non-toxic | Non-toxic | Non-toxic | inactive | inactive | inactive | inactive | inactive | Non-toxic | Non-toxic | Non-toxic | Non-toxic | Non-toxic | inactive | inactive | Activity (Mus musculus [20]): inactive; Activity (Mus musculus [22]): inactive
O=C1NC(=O)[C@@H]2CCCN2[C@H]1c1ccccc1C(F)(F)F | inactive | inactive | inactive | inactive | Non-toxic | Non-toxic | Non-toxic | Non-toxic | inactive | inactive | inactive | inactive | inactive | Non-toxic | Non-toxic | Non-toxic | Non-toxic | Non-toxic | inactive | inactive | Activity (Mus musculus [20]): inactive; Activity (Mus musculus [22]): inactive
O=C1NC(=O)[C@@H](c2cccc(C(F)(F)F)c2)N2CCCC[C@@H]12 | inactive | – | inactive | – | Non-toxic | – | Non-toxic | – | inactive | – | inactive | – | – | Non-toxic | – | Non-toxic | – | – | – | – | –
O=C1NC(=O)[C@@H]2CCCN2[C@H]1c1ccc(C(F)(F)F)cc1 | Active | inactive | Active | inactive | Non-toxic | Non-toxic | Non-toxic | Non-toxic | inactive | Active | inactive | inactive | inactive | Non-toxic | Non-toxic | Non-toxic | Non-toxic | Non-toxic | Active | inactive | Activity (Mus musculus [20]): Active; Activity (Mus musculus [22]): inactive; Activity (Rattus norvegicus [23]): inactive; Activity (Rattus norvegicus [24]): inactive; Activity (Rattus norvegicus [25]): inactive; Activity (Rattus norvegicus [26]): inactive; Activity (Rattus norvegicus [27]): inactive; Activity (Rattus norvegicus [28]): Non-toxic; Activity (Rattus norvegicus [29]): Non-toxic; Activity (Rattus norvegicus [30]): Non-toxic; Activity (Rattus norvegicus [31]): Non-toxic; Activity (Rattus norvegicus [32]): Non-toxic
O=C1NC(=O)[C@H](c2cccc(C(F)(F)F)c2)N2CCCC[C@H]12 | inactive | – | inactive | – | Non-toxic | – | Non-toxic | – | inactive | – | inactive | – | – | Non-toxic | – | Non-toxic | – | – | inactive | inactive | –
O=C1NC(=O)[C@@H]2CCCN2[C@H]1c1cc(F)cc(F)c1 | Active | inactive | inactive | inactive | Non-toxic | Non-toxic | Non-toxic | Non-toxic | Active | Active | inactive | inactive | inactive | Non-toxic | Non-toxic | Non-toxic | Non-toxic | Non-toxic | Active | inactive | Activity (Mus musculus [20]): Active; Activity (Mus musculus [22]): inactive
O=C1NC(=O)[C@H](c2cccc(C(F)(F)F)c2)N2CCC[C@H]12 | inactive | inactive | inactive | inactive | Non-toxic | Non-toxic | Non-toxic | Non-toxic | inactive | inactive | inactive | inactive | inactive | Non-toxic | Non-toxic | Non-toxic | Non-toxic | Non-toxic | inactive | inactive | Activity (Mus musculus [20]): inactive; Activity (Mus musculus [22]): inactive
O=C1NC(=O)[C@@H]2CCCN2[C@H]1c1c(F)cccc1F (mixture of isomers) | Active | inactive | inactive | inactive | Non-toxic | Non-toxic | Non-toxic | Non-toxic | Active | inactive | inactive | inactive | inactive | Non-toxic | Non-toxic | Non-toxic | Non-toxic | Non-toxic | inactive | inactive | Activity (Mus musculus [20]): inactive; Activity (Mus musculus [22]): inactive
